According to US7723373B2, “Indole-3-sulphur derivatives” (AstraZeneca AB, priority 2002, dated 2010):

Biological target: T1, rhCRTh2 (Homo sapiens, UniProt Q9Y5Y4)
T1 construct: expressed in transfected cells; host or cells: HEK cells (membrane preparation)
T1 sequence (Q9Y5Y4 1-395): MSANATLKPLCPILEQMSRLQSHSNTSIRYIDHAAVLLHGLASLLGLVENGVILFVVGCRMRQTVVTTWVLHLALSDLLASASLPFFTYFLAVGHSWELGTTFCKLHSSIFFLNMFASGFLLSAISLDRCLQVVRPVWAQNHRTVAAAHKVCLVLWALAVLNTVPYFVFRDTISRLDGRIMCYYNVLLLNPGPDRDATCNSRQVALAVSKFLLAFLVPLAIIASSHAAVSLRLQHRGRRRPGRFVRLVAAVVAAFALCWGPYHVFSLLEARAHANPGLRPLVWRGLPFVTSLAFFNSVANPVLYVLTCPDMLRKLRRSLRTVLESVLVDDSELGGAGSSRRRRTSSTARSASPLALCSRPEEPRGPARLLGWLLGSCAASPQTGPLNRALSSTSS
Experiment: Ligand binding assay ([3H]PGD2 SPA, HEK cell membranes)
Details: [3H]PGD2 binding to membranes of HEK cells expressing rhCRTh2/Gα16, SPA beads, 2 hours at room temperature
Method: [^3H]PGD2 was purchased from Perkin Elmer Life Sciences with a specific activity of 100-210 Ci/mmol. All other chemicals were of analytical grade.
HEK cells expressing rhCRTh2/Gα16 were routinely maintained in DMEM containing 10% Fetal Bovine Serum (HyClone), 1 mg/ml geneticin, 2 mM L-glutamine and 1% non-essential amino acids. For the preparation of membranes, the adherent transfected HEKcells were grown to confluence in two layer tissue culture factories (Fisher, catalogue number TKT-170-070E). Maximal levels of receptor expression were induced by addition of […] sodium butyrate for the last 18 hours of culture. The adherent cells were washed once with phosphate buffered saline (PBS, 50 ml per cell factory) and detached by the addition of 50 ml per cell factory of ice-cold membrane homogenisation buffer [20 mM HEPES (pH 7.4), 0.1 mM dithiothreitol, 1 mM EDTA, 0.1 mM phenyl methyl sulphonyl fluoride and 100 μg/ml bacitracin]. […] The final pellet was re-suspended in 4 ml of membrane homogenisation buffer per cell factory used and the protein content determined. […]
All assays were performed in Corning clear bottomed, white 96-well NBS plates (Fisher). […] (The optimum coating concentrations were determined for each batch of membranes) The beads were pelleted by centrifugation (800×g for 7 minutes at 4° C.), washed once with assay buffer (50 mM HEPES pH 7.4 containing 5 mM magnesium chloride) and finally re-suspended in assay buffer at a bead concentration of 10 mg/ml.
Each assay contained 20 μl of 6.25 nM [^3]PGD2, 20 μl membrane saturated SPA beads both in assay buffer and 10 μl of compound solution or 13,14-dihydro-15-keto prostaglandin D2 (DK-PGD2, for determination of non-specific binding Cayman chemical company). […] The assay plate was incubated at room temperature for 2 hours and counted on a Wallac Microbeta liquid scintillation counter (1 minute per well).

IC50	pIC50	Compound
7.94 nM	–	Cc1c(S(=O)(=O)c2ccc(Cl)cc2)c2cc(Cl)ccc2n1CC(=O)O [Example 2, 5-chloro-3-[(4-chlorophenyl)sulfonyl]-2-methyl-1H-indole-1-acetic acid]
–	7	5-chloro-3-[(4-chlorophenyl)sulfonyl]-6-cyano-2-methyl-1H-indole-1-acetic acid [Example 6]
251 nM	–	Cc1ccc2c(c1)c([S+]([O-])c1ccc(Cl)cc1)c(C)n2CC(=O)O (stereo not drawn) [Example 7, 3-[(4-chlorophenyl)sulfinyl]-2,5-dimethyl-1H-indole-1-acetic acid]
